Experimental findings from patent US20230013669A1, “Antibacterial Treatment Using a Cannabinoid and an Active Agent” (priority 2019, published 2023) are described below.

This experiment relates to Klebsiella pneumoniae ATCC 700603. Put plainly: MIC micro-broth dilution assay (Example 1 method). Format: cell-based. To be noted: Klebsiella pneumoniae, ATCC700603; CBD alone; read-out: CBD MIC. The protocol:
Methods were as for Example 1. Cannabidiol was tested in combination with cefotetan.
Methods were as for Example 1. Cannabidiol was tested in combination with aztreonam.
Methods were as for Example 1. Cannabidiol was tested in combination with cefepime.
Methods were as for Example 1. Cannabidiol was tested in combination with octapeptin C4.
Methods were as for Example 1. Cannabidiol was tested in combination with Spero SPR206. The experiments were carried out three times.

For the molecule `C=C(C)C1CCC(C)=CC1c1c(O)cc(CCCCC)cc1O` (stereo not shown) [Cannabidiol, 2-[3-methyl-6-(1-methylethenyl)-2-cyclohexen-1-yl]-5-pentyl-1,3-benzenediol], the MIC was 256 µg/mL.
